Measurements taken from patent US20080118480A1, “Methods and Compositions for Directing Migration of Neural Progenitor Cells” (IMCLONE SYSTEMS INCORPORATED, priority 2003, published 2008).
“Also recorded” adds a separate entry of the source.

What was measured:
Type in all cases: cell-based, rat
[1] = system: VEGFR-2; test: RNase protection assay of VEGF receptor mRNA expression; settings: 12 hours starvation of FGF-2 versus cells in FGF-2
Method: (§1) Neural progenitor cells at 6 days of culture in FGF-2 or after starvation of FGF-2 for 12 hours were used for RNA preparation. Total cellular RNA was purified using Trizol reagent (Invitrogen). RNase protection assays were performed using cRNA probes for rat VEGFR1 and VEGFR2 as described in Pepper et al. (2000).

[2] = system: VEGFR-1; test: as above; settings: 12 hours starvation of FGF-2 versus cells in FGF-2
Method: as §1

[3] = system: subventricular zone (SVZ) explants; test: Migration of neural progenitor cells from SVZ explants in collagen matrix
Text: The frontal lobes of the brains of one-day-old Sprague-Dawley rat pups (Size, Zurich, Switzerland) were isolated and cut into 300 μm thick coronal sections with a McIllwain tissue chopper. From these slices the anterior part of the subventricular zone (SVZ) was microdissected. The SVZ explants were embedded in a collagen matrix and cultured for 7 days in chemically-defined serum-free medium (50% Dulbecco's modified Eagle's medium [Gibco, Berlin, […]], 50% F12, HEPES, Tris-HCl, and complemented with transferrin human 20 μg/ml, putrescine 100 μM, sodium selenite 30 nM, triiodothyronin 1 nM, docosahexaenoic acid 0.5 μg/ml, arachidonic acid 1 μg/ml, insulin 60 U/l) under 5% CO2. The medium was changed every 3rd day. For co-culture experiments, SVZ explants were cultured in the presence of murine C2C12 myoblasts that had been engineered to secret […] et al., 2001). C2C12 cells were suspended in a drop of collagen matrix which was placed at a distance of approximately 1,000 μm from the SVZ explant. As a control, mock-transfected cells of the same origin were placed into the collagen matrix in a similar manner and at the same distance, but on the opposite side of the explant. Cell migration was assessed at the end of the 7th day in culture. Three categories were established: 1, no migration: no or only a few cells emigrated from the explants; 2, symmetrical migration: numerous cells had left the explants, the distance of the migrating front of the cells exceeded 50 μm, no directionality of migration; 3, asymmetrical or directional migration: when the distance of the migrating front were at least twice that on the other side and exceeded 50 μm.

[4] = system: neural progenitor cells; test: Dunn chamber chemotaxis / chemokinesis of neural progenitor cells
Method: The SVZ was dissected from coronal slices of newborn rat brains, dissociated mechanically and trypsinized according to methods known in the art (See Lim et al. “Noggin antagonizes BMP signaling to create a niche for adult neurogenesis, Neuron, 28: 713-726 (2000), which is incorporated by reference herein). SVZ progenitors were purified using percoll gradient centrifugation according to methods known in the art (See Lim et al., 2000) and seeded onto matrigel (0.24 mg/cm^2)- or laminin-coated coverslips. Isolated cells were allowed to grow in Neurobasal medium supplemented with 20 ng/ml FGF-2, 1×B27, 2 mM […], 1 mM sodium pyruvate, 2 mM N-acetyl-cysteine, and 1% penicillin-streptomycin. Cultures were fed every three days with fresh medium containing 20 ng/ml FGF-2.
[…] Cell Sci., 99:769-775 (1991); Allen et al., “A role for Cdc42 in macrophage chemotaxis,” J. Cell. Biol, 141:1147-1157 (1998), both of which are incorporated by reference herein). Recombinant human VEGF-CΔNΔC (Dr. M. Skobe, Cancer Center, Mount Sinai Medical Center, New York) was used in some experiments. The Dunn chamber is made from a Helber bacteria counting chamber by grinding a circular well in the central platform to leave a 1 mm wide annular bridge between the inner and the outer well. Chemoattractants added to the outer well of the device will diffuse across the bridge to the inner blind well of the chamber and form a gradient. This apparatus allows one to determine the direction of migration in relation to the direction of the gradient.
Coverslips with cells were inverted onto the chamber and cell migration was recorded through the annular bridge between the concentric inner and outer wells, and a period of 2 hours was chosen to assess cell migration. In these studies, a systematic sampling was applied and all cells within the migration region of the chamber were recorded and analyzed. Data were recorded every 10 minutes using a ZEISS 10× objective via a HAMAMATSU CCD video camera using Openlab software.
[…] For chemokinesis experiments, VEGF (20 ng/ml) or FGF-2 (20 ng/ml) was added to both outer and inner wells of the Dunn chamber.
Directionality of cell movement was analyzed using scatter diagrams of cell displacement. The diagrams were oriented so that the position of the outer well of the chamber was vertically upwards (y direction). Each point represents the final positions of the cells at the end of the recording period where the starting point of migration is fixed at the intersection of the two axes.
To determine the efficiency of forward migration during the 2-hour recording period, each cell's forward migration index (FMI) was calculated as the ratio of forward progress (net distance the cell progressed in the direction of VEGF source) to the total path length (total distance the cell traveled through the field) (Foxman et al., 1999). FMI values were negative when cells moved away from the source of VEGF. The cell speed was calculated for each lapse interval recorded during the 2-hour period.

[5] = system: VEGFR-2; test: Immunoprecipitation and Western blot of VEGFR-2 protein
Method: Neural progenitor cells from the normal cultures in FGF-2 or from cultures starved of FGF-2 for 12 hours were lysed and VEGFR-2 protein was immunoprecipitated from cell lysates with a polyclonal antibody (sc-504; Santa Cruz Biochemicals, Santa Cruz, Calif.) recognizing amino aids 1158 to 1345 in the mouse VEGFR2 carboxy terminus. Western blot was performed with a polyclonal anti-VEGFR-2 antibody (sc-315; Santa Cruz Biochemicals) recognizing the mouse carboxy terminal amino acids 1348 to 1367.

| Substance | level of VEGFR-2 transcripts after FGF-2 starvation [1] | level of VEGFR-1 transcripts after FGF-2 starvation [2] | explants with migrating cells symmetrically distributed ([3]; FGF-2 (20 ng/ml), co-cultured with mock-transfected cells) | explants with symmetric migration ([3]; application of VEGF and FGF-2 together or FGF-2 alone) | chemotactic response to VEGF after re-addition of FGF-2 ([4]; 12-hour FGF-2 starvation, then 8-hour re-incubation with FGF-2, VEGF gradient) | chemotactic effect of FGF-2 ([4]; FGF-2 gradient, whether or not VEGF was present) | VEGFR-2 protein expression in the presence of FGF-2 ([5]; cultured in FGF-2) | VEGFR-2 protein expression in the absence of FGF-2 ([5]; starved of FGF-2 for 12 hours) | explants with no significant cell migration ([3]; application of VEGF in the absence of FGF-2) | directionality of migration under chemokinesis conditions ([4]; VEGF (20 ng/ml) in both inner and outer wells, FGF-2 present) | forward migration index (FMI) versus FGF-2 gradient or chemokinesis ([4]; VEGF gradient in the presence of FGF-2, 2-hour recording) | migration speed versus FGF-2 gradient or chemokinesis ([4]; VEGF gradient in the presence of FGF-2, mean over 2 hours) | chemotaxis in a VEGF gradient after FGF-2 starvation ([4]; cells at 5 days starved of FGF-2 for 12 hours, then VEGF gradient) | chemotaxis of neural progenitor cells in a VEGF gradient ([4]; gradient established with 200 ng/ml VEGF in outer well, 20 ng/ml FGF-2 in both wells, day 6 cells, 2-hour recording) | attractive effect on different coating matrices ([4]; laminin-, poly-L-lysine- or matrigel-coated coverslips) |
| --- | --- | --- | --- | --- | --- | --- | --- | --- | --- | --- | --- | --- | --- | --- | --- |
| FGF-2: fibroblast growth factor-2 (FGF-2), used at 20 ng/ml in culture medium | fivefold decrease | fivefold decrease | 10/10 | 12/12 | resume their chemotactic response; also recorded: rescued | no chemotactic effect | substantial expression | little to no expression | – | – | – | – | – | – | – |
| VEGF | – | – | – | – | – | – | – | – | 4/4 | no clear preference for displacement | significantly greater | significantly greater | lose their chemotactic response; also recorded: failed to undergo chemotaxis | clear directionality of migration; also recorded: strong positive chemotaxis; also recorded: migrated efficiently toward the source of VEGF | similar |
